Tests used:
[1] = target: D1 dopamine receptor (Homo sapiens, UniProt P21728); test: pKi for dopamine receptor D1 (Table 1); type: binding
Source text: (§1) The term “other dopamine receptors” relates to, for instance, D1, D2 and D3 dopamine receptors. pKi values of test compounds for dopamine receptors as well as 5-HT2A receptors can be measured using commonly known assays.

[2] = target: D3 dopamine receptor (Homo sapiens, UniProt P35462); test: pKi for dopamine receptor D3 (Table 1); type: binding
Source text: (§2) The term “other 5HT receptors” as used herein relate to, for instance, 5-HT1 receptors (e.g. 5-HT1A, 5-HT1 B, 5-HT1D, 5-HT1 E, 5-HT1F), 5-HT2B, 5-HT2C, 5-HT6 (rat) and 5-HT7 (rat). The expression “selective affinity for the 5-HT2A receptor” relates to a receptor having a higher affinity for the 5-HT2A receptor than for other 5-HT receptors. The expression “selective affinity for the D4 receptor” means that the receptor has a higher affinity for the dopamine D4 receptor than for other dopamine receptors. The term “other dopamine receptors” relates to, for instance, D1, D2 and D3 dopamine receptors. pKi values of test compounds for dopamine receptors as well as 5-HT2A receptors can be measured using commonly known assays.

[3] = target: T1, D4 receptor (Homo sapiens, UniProt P21917); test: pKi for dopamine receptor D4 (Table 1); type: binding
T1 sequence (P21917 1-419): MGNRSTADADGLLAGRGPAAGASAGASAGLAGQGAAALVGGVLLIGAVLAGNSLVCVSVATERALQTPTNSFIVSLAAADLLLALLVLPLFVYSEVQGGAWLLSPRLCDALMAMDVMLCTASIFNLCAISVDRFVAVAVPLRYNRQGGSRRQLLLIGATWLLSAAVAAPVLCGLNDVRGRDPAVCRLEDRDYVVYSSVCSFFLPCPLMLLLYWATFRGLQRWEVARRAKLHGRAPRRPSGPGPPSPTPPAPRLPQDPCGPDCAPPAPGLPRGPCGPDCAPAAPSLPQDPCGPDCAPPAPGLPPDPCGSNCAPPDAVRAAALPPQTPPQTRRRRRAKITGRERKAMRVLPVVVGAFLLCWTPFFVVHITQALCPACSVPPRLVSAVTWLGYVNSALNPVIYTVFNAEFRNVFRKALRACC
Source text: as §2

[4] = target: T2, 5-HT1A receptor (Homo sapiens, UniProt P08908); test: pKi for 5HT1A receptor (Table 1); type: binding
T2 sequence (P08908 1-422): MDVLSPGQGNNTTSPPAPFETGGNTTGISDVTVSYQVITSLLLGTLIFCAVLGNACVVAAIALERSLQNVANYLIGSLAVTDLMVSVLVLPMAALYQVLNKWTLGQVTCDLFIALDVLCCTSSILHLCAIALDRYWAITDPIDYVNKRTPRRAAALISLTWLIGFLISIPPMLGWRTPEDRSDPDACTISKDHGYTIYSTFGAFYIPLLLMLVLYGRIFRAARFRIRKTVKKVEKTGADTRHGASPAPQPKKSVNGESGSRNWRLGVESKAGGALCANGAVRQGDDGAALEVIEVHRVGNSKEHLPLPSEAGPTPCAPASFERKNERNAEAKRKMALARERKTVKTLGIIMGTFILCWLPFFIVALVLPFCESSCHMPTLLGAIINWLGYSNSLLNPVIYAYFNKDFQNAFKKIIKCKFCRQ
Source text: as §1

[5] = target: 5-HT2A receptor (Homo sapiens, UniProt P28223); test: pKi for 5HT2A receptor (Table 1); type: binding
Sequence of 5-HT2A receptor (P28223 whole entry): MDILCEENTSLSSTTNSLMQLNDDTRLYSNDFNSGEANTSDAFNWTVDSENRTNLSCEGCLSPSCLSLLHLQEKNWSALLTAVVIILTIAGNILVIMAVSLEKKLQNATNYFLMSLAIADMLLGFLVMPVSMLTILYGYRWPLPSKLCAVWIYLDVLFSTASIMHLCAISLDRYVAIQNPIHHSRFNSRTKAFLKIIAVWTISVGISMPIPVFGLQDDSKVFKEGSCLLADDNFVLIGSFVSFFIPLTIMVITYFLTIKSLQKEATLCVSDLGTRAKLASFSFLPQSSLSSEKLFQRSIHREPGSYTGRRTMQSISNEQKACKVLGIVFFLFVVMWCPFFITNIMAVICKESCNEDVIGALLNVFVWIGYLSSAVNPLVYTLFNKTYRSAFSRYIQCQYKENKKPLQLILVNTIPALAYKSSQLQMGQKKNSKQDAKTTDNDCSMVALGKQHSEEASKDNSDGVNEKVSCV
Source text: as §2

[6] = target: T3, 5-HT2C receptor (Homo sapiens, UniProt P28335); test: pKi for 5HT2C receptor (Table 1); type: binding
T3 sequence (P28335 33-458): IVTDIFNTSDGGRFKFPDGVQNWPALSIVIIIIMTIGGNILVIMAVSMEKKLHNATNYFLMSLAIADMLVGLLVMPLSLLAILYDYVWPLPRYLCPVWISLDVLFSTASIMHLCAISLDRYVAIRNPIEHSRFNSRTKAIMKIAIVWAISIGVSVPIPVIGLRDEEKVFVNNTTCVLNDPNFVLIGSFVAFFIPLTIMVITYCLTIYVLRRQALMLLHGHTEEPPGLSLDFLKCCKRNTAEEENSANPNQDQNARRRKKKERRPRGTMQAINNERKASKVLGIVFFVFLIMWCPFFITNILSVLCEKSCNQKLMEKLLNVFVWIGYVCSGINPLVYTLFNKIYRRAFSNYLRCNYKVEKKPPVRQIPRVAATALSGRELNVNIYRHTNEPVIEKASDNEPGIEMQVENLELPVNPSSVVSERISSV
Source text: as §2

[7] = target: T4, adrenergic receptor Alpha 1A (Homo sapiens, UniProt P35348); test: pKi for adrenergic receptor Alpha1A (Table 1); type: binding
T4 sequence (P35348 1-466): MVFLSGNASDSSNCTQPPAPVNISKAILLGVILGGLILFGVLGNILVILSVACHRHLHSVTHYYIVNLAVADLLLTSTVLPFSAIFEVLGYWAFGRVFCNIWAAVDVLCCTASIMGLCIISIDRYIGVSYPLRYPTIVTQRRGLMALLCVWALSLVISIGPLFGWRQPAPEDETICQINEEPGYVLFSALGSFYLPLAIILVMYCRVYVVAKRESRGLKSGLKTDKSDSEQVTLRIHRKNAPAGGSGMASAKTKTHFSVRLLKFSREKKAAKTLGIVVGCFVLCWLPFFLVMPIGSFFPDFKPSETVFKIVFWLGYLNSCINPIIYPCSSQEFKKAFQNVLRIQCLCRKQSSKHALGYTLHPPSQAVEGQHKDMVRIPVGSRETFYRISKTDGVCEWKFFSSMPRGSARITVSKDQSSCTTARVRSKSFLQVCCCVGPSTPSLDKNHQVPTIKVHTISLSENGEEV
Source text: as §1

[8] = target: T5, adrenergic receptor Alpha 2A (Homo sapiens, UniProt P08913); test: pKi for adrenergic receptor Alpha2A (Table 1); type: binding
T5 sequence (P08913 1-465): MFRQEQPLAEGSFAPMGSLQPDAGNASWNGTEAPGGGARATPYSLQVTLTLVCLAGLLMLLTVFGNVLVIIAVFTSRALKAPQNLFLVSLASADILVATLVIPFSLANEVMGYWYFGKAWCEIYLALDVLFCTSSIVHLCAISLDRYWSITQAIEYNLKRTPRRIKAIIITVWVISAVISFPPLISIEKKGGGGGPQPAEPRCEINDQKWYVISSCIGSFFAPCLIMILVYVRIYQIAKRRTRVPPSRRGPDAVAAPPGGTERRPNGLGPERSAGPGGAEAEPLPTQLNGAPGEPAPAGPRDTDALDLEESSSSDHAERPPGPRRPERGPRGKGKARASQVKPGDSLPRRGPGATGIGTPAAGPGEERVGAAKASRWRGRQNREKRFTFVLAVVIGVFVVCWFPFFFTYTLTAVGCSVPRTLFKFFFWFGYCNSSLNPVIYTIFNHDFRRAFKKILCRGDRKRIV
Source text: as §2

[9] = target: 5-HT1B receptor (Homo sapiens, UniProt P28222); test: pKi for 5HT1B receptor (Table 1); type: binding
Sequence of 5-HT1B receptor (P28222 whole entry): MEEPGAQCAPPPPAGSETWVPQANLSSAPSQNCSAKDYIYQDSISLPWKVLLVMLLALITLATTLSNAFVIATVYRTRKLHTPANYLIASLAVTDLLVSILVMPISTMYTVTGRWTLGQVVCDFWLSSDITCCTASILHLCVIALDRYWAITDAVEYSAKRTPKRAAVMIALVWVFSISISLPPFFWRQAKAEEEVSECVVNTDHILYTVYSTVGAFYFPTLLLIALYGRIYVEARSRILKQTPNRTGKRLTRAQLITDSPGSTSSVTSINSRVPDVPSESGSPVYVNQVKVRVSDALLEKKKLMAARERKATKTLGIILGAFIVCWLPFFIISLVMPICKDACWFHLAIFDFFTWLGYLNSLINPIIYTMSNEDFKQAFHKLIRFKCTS

[10] = target: 5-HT1D receptor (Homo sapiens, UniProt P28221); test: pKi for 5HT1D receptor (Table 1); type: binding
Sequence of 5-HT1D receptor (P28221 whole entry): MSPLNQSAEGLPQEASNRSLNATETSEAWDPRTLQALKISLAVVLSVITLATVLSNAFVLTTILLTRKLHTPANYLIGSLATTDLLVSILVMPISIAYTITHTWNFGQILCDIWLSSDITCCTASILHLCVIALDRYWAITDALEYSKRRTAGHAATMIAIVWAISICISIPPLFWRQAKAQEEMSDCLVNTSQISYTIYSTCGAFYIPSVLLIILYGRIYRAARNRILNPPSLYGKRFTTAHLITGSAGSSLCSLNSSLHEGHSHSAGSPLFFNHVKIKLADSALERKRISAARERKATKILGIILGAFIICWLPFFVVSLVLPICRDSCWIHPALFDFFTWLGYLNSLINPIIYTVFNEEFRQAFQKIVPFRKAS

[11] = target: 5-HT2B receptor (Homo sapiens, UniProt P41595); test: pKi for 5HT2B receptor (Table 1); type: binding
Sequence of 5-HT2B receptor (P41595 whole entry): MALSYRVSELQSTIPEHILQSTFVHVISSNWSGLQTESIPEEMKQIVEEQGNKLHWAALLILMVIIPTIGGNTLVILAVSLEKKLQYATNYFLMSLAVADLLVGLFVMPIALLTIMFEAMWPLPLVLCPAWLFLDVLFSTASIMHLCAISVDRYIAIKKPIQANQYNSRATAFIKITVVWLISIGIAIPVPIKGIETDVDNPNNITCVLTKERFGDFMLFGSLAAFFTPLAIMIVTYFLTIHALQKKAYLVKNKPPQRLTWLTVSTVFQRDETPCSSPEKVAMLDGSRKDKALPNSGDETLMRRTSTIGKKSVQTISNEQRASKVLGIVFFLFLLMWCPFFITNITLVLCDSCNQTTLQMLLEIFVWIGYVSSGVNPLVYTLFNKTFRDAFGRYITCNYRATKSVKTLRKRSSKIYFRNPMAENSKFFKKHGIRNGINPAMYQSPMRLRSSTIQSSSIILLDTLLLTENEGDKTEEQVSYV
Source text: as §1

[12] = target: other 5HT receptors; test: pKi towards other 5HT receptors; type: binding; conditions: 5HT receptors other than 5-HT2A
Source text: (§3) The term “other 5HT receptors” as used herein relate to, for instance, 5-HT1 receptors (e.g. 5-HT1A, 5-HT1 B, 5-HT1D, 5-HT1 E, 5-HT1F), 5-HT2B, 5-HT2C, 5-HT6 (rat) and 5-HT7 (rat). […] The term “other dopamine receptors” relates to, for instance, D1, D2 and D3 dopamine receptors. pKi values of test compounds for dopamine receptors as well as 5-HT2A receptors can be measured using commonly known assays.

[13] = target: other dopamine receptors; test: pKi towards other dopamine receptors; type: binding; conditions: dopamine receptors other than D4
Source text: as §3

[14] = tested on: patients with treatment refractory major depression; test: Semi-naturalistic open label study of low dose pipamperone in treatment refractory major depression; type: in vivo, human
Procedure: Design: Semi-naturalistic i.e. inclusion of every 'natural' patient in an outpatient practice but without concomitant use of mood enhancing drugs, open label Control: No Phase: Phase Ila-preliminary Proof of Concept Location: Belgium -Research Centre […] Adverse events are assessed on: body as a whole, central and peripheral nervous system, gastrointestinal, musculoskeletal, psychiatric, respiratory, skin and appendages, vascular and urinary, taking into account discontinued treatment due to adverse events. Laboratory parameters, ECG, bodyweight and vital signs are not measured since this is a naturalistic study.

[15] = target: D2 dopamine receptor (Homo sapiens, UniProt P14416); test: pKi for dopamine receptor D2 (Table 1); type: binding
Sequence of D2 dopamine receptor (P14416 whole entry): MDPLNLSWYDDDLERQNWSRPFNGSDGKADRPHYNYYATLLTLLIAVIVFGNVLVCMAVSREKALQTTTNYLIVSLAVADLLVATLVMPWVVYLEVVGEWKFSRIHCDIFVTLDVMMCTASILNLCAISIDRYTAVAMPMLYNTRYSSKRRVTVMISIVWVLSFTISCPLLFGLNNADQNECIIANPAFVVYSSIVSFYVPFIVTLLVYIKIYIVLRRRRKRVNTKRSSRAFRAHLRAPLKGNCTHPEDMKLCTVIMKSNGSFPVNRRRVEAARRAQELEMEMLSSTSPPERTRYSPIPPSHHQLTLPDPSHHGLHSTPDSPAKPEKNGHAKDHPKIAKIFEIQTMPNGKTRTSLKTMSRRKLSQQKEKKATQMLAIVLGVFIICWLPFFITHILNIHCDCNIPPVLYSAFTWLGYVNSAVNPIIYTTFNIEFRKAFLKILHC
Source text: as §1

[16] = target: 5-HT6 (rat) receptor (Rattus norvegicus, UniProt P31388); test: pKi for 5HT6 rat receptor (Table 1); type: binding
[17] = target: 5-HT7 (rat) receptor (Rattus norvegicus, UniProt P32305); test: pKi for 5HT7 rat receptor (Table 1); type: binding
Sequence of 5-HT7 (rat) receptor (P32305 whole entry): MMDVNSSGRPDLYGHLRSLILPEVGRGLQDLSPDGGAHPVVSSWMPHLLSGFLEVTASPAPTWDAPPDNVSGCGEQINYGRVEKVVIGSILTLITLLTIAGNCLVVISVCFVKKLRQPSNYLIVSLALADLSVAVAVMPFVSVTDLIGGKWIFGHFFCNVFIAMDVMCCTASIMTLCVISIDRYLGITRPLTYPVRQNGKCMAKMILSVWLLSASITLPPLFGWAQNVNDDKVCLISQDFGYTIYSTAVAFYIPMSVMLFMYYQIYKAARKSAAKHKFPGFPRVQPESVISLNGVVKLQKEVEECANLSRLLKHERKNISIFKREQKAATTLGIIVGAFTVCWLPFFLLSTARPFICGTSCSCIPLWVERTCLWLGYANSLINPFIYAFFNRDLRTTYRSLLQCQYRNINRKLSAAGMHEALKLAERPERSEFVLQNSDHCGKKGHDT

[18] = target: adrenergic receptor Alpha 2B (Homo sapiens, UniProt P18089); test: pKi for adrenergic receptor Alpha2B (Table 1); type: binding
[19] = target: adrenergic receptor Alpha 2C (Homo sapiens, UniProt P18825); test: pKi for adrenergic receptor Alpha2C (Table 1); type: binding
Sequence of adrenergic receptor Alpha 2C (P18825 whole entry): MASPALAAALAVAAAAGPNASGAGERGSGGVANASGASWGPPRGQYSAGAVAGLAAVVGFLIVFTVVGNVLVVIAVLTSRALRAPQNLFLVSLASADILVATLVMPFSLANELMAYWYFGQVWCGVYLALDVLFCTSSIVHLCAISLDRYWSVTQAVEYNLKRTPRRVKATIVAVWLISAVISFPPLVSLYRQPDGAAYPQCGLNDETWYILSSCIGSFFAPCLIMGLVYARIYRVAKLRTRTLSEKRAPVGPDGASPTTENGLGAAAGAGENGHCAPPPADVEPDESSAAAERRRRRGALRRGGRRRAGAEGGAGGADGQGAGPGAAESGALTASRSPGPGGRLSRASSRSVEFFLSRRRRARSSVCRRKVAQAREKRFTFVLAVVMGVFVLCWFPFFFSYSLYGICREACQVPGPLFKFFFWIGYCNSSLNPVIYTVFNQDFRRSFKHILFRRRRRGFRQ

[20] = target: adrenergic receptor Beta 1 (Homo sapiens, UniProt P08588); test: pKi for adrenergic receptor Beta1 (Table 1); type: binding
[21] = target: adrenergic receptor Beta 2 (Homo sapiens, UniProt P07550); test: pKi for adrenergic receptor Beta2 (Table 1); type: binding
Sequence of adrenergic receptor Beta 2 (P07550 whole entry): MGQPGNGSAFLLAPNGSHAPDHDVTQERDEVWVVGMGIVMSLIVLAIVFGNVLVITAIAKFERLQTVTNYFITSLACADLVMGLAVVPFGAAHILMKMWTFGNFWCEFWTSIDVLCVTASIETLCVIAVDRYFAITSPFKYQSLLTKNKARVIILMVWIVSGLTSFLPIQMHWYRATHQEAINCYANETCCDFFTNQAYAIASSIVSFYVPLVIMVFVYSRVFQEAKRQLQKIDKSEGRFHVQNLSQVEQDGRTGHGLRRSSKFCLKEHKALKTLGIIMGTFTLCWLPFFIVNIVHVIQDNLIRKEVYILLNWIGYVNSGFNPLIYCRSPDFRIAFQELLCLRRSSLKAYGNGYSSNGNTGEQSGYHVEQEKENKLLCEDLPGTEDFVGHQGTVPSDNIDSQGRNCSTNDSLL

[22] = target: 5-HT1E receptor (Homo sapiens, UniProt P28566); test: pKi for 5HT1E receptor (Table 1); type: binding
Sequence of 5-HT1E receptor (P28566 whole entry): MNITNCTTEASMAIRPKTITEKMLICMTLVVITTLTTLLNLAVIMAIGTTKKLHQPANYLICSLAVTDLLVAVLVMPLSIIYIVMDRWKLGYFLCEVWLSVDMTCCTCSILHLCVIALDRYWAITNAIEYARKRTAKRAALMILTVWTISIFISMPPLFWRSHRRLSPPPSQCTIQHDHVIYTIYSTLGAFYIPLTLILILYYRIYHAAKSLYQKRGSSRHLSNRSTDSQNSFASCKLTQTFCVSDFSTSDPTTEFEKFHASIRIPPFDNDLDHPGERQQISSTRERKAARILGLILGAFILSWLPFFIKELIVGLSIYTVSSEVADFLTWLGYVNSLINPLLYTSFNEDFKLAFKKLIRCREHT

[23] = tested on: patients; conditions: clinical trials; cited from earlier work

Sequence of D3 dopamine receptor (P35462 whole entry): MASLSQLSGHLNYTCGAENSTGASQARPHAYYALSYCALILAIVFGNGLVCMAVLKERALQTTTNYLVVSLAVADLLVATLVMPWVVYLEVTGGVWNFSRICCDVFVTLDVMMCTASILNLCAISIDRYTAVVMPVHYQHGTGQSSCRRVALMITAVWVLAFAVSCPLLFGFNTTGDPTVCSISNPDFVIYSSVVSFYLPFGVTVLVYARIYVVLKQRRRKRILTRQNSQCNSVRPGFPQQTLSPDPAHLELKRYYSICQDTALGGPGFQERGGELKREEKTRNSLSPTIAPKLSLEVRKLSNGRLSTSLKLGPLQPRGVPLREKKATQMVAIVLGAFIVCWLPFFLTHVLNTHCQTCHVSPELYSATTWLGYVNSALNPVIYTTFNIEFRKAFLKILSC
Sequence of D1 dopamine receptor (P21728 whole entry): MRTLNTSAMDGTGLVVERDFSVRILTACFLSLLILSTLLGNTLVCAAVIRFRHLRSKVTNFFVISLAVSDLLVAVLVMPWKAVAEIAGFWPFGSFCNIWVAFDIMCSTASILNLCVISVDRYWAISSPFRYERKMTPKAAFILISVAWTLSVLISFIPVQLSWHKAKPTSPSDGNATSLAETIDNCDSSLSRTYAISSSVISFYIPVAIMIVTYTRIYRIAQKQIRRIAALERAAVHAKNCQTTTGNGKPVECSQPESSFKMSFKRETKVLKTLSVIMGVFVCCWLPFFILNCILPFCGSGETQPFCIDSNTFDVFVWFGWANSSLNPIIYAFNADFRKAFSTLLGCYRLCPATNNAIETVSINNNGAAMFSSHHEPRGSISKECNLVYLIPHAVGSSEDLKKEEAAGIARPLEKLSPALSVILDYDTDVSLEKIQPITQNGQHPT

Compound | pKi D3 [2] | pKi D4 [3] | pKi 5HT1A [4] | pKi 5HT2A [5] | pKi 5HT2C [6] | pKi Alpha1A [7] | pKi Alpha2A [8] | other results
CCN1CCC[C@H]1CNC(=O)c1c(O)c(Cl)cc(Cl)c1OC (racemic) [Raciopride] | 8-9 | <6 | <6 | 6-7 | <6 | <6 | <6 | pKi D1 [1]: <6
CCNC(=O)N1CCN(CCCC(c2ccc(F)cc2)c2ccc(F)cc2)CC1 [Amperozide] |  |  |  |  |  |  |  | Ki [3]: > 1000 nM
Fc1cccc2c1O[C@H]1CNC[C@@H]1O2 [Fluparoxan] |  |  |  |  |  |  |  | Ki [5]: > 1000 nM
OC1(c2ccc(Cl)cc2)CCN(Cc2c[nH]c3ccccc23)CC1 [L741626] | 7-8 | 6-7 |  |  |  |  | <6 | pKi 5HT1B [9]: <6; pKi 5HT1D [10]: <6; pKi 5HT2B [11]: 6-7
NC(=O)C1(N2CCCCC2)CCN(CCCC(=O)c2ccc(F)cc2)CC1 [Pipamperone, 1′-[3-(p-Fluorobenzoyl)propyl]-[1,4′-bipiperidine]-4′-carboxamide] |  |  |  |  |  |  |  | Ki [3]: ≤ 10 nM; pKi towards other 5HT receptors [12]: less than 8; pKi towards other dopamine receptors [13]: less than 8; tolerability in patients with depression ([14]; 1-20 mg/day PO, 8 weeks): generally well tolerated; anti-depressant effect on treatment refractory patients ([14]; 1-20 mg/day PO, 8 weeks, refractory towards SSRIs): apparent; sedative effects ([14]; doses used in the study (1-20 mg/day), observed at higher doses): lacking; anti-depressant effect ([14]; extremely unconventional low dose, 1-20 mg/day PO, 8 weeks, open label): apparent
O=C(CC1CCN(CCOc2cccc3c2OCCO3)C1)c1ccc(F)cc1 (centres unmarked) [S16924] | 7-8 | 7-8 | 8-9 | >9 | 7-8 | 8-9 | 6-7 | pKi D2 [15]: 7-8; pKi 5HT2B [11]: 8-9; pKi 5HT6rat [16]: 7-8; pKi 5HT7rat [17]: 7-8; pKi Alpha2B [18]: 7-8; pKi Alpha2C [19]: 6-7; pKi Beta1 [20]: <6; pKi Beta2 [21]: <6
O=C1N(CCN2CCC(c3noc4cc(F)ccc34)CC2)CCN1c1ccccc1 [S18327] | 6-7 | 8-9 | 7-8 | 8-9 | 6-7 | >9 | 6-7 | pKi D1 [1]: 7-8; pKi D2 [15]: 7-8
N#Cc1ccc2c(c1)[C@H]1CN(CCCCNC(=O)c3ccc(-c4ccccc4)cc3)C[C@@H]1CO2 [S33084] | >9 | <6 | <6 | 6-7 | 7-8 | 6-7 | <6 | pKi D1 [1]: 6-7; pKi D2 [15]: 7-8; pKi 5HT1B [9]: 6-7; pKi 5HT1D [10]: 6-7; pKi 5HT2B [11]: 6-7
OCCOCCN1CCN(C2=Nc3ccccc3Sc3ccccc32)CC1 [Seroquel] |  |  |  |  |  |  |  | Ki [22]: > 1000 nM
CN(C)CCOC1=Cc2ccccc2Sc2ccc(Cl)cc21 [Zotepine] |  |  |  |  |  |  |  | Ki [3]: 10 to 100 nM
CN(C)CCCC1(c2ccc(F)cc2)OCc2cc(C#N)ccc21 (centres unmarked) [citalopram] |  |  |  |  |  |  |  | patients reporting one or more of the listed side effects [23]: over 10%

Source: patent US20120010242A1 (ALKERSTRAAT 30 A, priority 2009, published 2012)
